These results are taken from article PMC6266305 (Nutrients, 2018).

Like-named read-outs stand apart in the source and are kept apart here.

Data set [1] in a line: In vitro digestion model: bioaccessibility of alperujo phenolic compounds added to a test meal (percentage found in the aqueous phase of the digesta). It is filed as in vitro ADME. The settings on record: for recovery: pig. As for the experimental part: The in vitro digestion was carried out as previously described. […] The mixture was dispersed with Ultra-Turrax® (Ika) and artificial saliva (2.5 mL, pH 7) was added to the mixture. The sample was incubated for 10 min at 37 °C in a shaking incubator. The pH of the gastric medium was adjusted to 4.00 ± 0.02 with 1 M HCl. Then, porcine pepsin (2 mL, 40 mg/mL in 0.1 M HCl) was added and the homogenate was incubated at 37 °C in a shaking incubator for 30 min simulating the gastric step. The pH of the mixture was raised to 6.00 ± 0.02 with 0.9 M NaHCO3 and 13 mL of a mixture of porcine bile extract (39.08 mg/mL) and pancreatin (2.08 mg/mL) in 0.1 M trisodium citrate (pH 6) were added. Samples were incubated in a shaking incubator at 37 °C for 30 min to complete the digestion process. The final mixture representing the digesta was centrifuged (2500 g for 1 h at 10 °C) to separate the aqueous fraction. […] All analyses were run in quadruplicate. Aliquots from salivary, gastric, and duodenal steps were frozen at −80 °C until use. […] After centrifugation (3560 g for 10 min at 4 °C), the lower phase was collected. The solid bottom was re-extracted with 0.3 mL of ethanol and vortexed for 10 min. The second ethanol phase recovered was pooled to the previously collected phase, and then dried using a Speed-Vac®. The dried extracts were dissolved in 200 µL of water. Apical media were directly injected. […] All samples were stored at −80 °C before analysis. All samples were analyzed by UHPLC-DAD-MS using an Acquity UPLC® system that was linked to both a diode-array detector and a Bruker Daltonics HCT Ultra Ion Traps mass spectrometer equipped with an Electron Spray Ionization (ESI) source operating in negative ion mode. The separation was performed on an Acquity C18 BEH column (50 × 2.1 mm i.d., 1.7 µm) kept at 35 °C. The solvents were (A) water/formic acid (99.5/0.5) and (B) acetonitrile. […] Along the three steps of the gradient, the flow rate was 0.30, 0.35, and 0.40 mL/min. […] Chromatograms were acquired at 280 nm. The spectroscopic detection was performed in the range 200–800 nm with a resolution of 1.2 nm.

On the set-up of data set [2]: method as in PMID 27355793. The settings on record: Tyr from olives; cited from earlier work.
[3] abbreviates: pH 6, in vitro digestion with test meal, average of alperujo and alperujo-CD, mean ± SD, read-out: Bioaccessibility (recovery in the final aqueous phase at the duodenal step).
Where [4] appears, read: pH 6, in vitro digestion, relative to the initial quantity, read-out: Recovery in the digesta.

With `O=C(O)/C=C/c1ccc(O)cc1` [p-Cm, p-coumaric acid], the “Higher bioaccessibility of p-Cm than CA” value in data set [1] (in vitro digestion, final aqueous phase) stood at 25%. Further, the recovery in data set [1] (setting [3]) is > 87.9%; in data set [1] (setting [4]), ≥ 100%.

As for `OCCc1ccc(O)cc1` [Tyr, tyrosol], the “Higher bioaccessibility of Tyr than HT” value in data set [2] is 16%. Besides, the recovery was 83.7 ± 2.4% in data set [1] (setting [3]) and ≥ 100% in data set [1] (setting [4]).
